Where two headings read alike, the source gives them in different places. *1 amine or outer side, *2 acyl side, *3 side chain or, on linkers, in order; H or OH if unused. Where a SMILES comes first, the peptide text is derived from it. Side-chain parts run from the residue outwards. [ ]: non-standard residue; d: D form. The star is where a group is joined. Ethylenediamine = C(CN[*:2])N[*:1]; Hyp = O=C(O)[C@@H]1C[C@@H](O)CN1; Phg = N[C@H](C(=O)O)c1ccccc1; CO = O=C([*:1])[*:2]; Bn = c1ccc(C*)cc1

Data set [1] concerns release of GH stimulated by Nembutal. In words: In vivo inhibition of the GH production stimulated by barbiturates (Nembutal). Also noted: species or system rat. The note with it: male rats, subcutaneous. As for the experimental part:
Assay for the In Vivo Inhibition of the GH Production, Stimulated by Barbiturates
The compounds are administrated subcutaneously, at different doses, in male rats (CD, Harlan Italy). Blood samples are collected, at different times, one hour after the animals were anesthetised by means of intraperitoneal administration of Nembutal (60 mg/kg); the hormone levels are measured by means of the ELISA test. In the animals treated with the compounds of the invention, at doses from 5 to 250 μg/kg, there is a decrease of the produced GH levels.

The target in data set [2] is T1, hSSTR1 (Homo sapiens, UniProt P30872).
T1 construct: expressed in transfected cells
T1 sequence (P30872 whole entry): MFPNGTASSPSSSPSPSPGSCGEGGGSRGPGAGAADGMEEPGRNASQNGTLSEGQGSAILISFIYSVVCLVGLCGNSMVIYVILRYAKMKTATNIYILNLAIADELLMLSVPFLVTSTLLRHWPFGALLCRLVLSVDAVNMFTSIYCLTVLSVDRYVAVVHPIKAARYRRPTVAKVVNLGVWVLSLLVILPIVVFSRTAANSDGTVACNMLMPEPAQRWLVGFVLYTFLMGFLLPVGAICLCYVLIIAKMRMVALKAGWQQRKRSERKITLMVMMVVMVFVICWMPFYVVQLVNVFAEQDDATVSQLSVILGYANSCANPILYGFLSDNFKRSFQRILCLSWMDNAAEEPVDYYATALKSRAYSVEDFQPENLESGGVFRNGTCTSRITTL
Put plainly: Binding assay, displacement of 3-[125I]iodotyrosyl11 Somatostatin-14. Conditions: recombinant human receptor, cell membranes; 60 min at 25° C. The procedure: (§1) The binding assays were carried out, as is explained below, by using preparations of recombinant human receptors, hSSTR1, hSSTR2, hSSTR3 and hSSTR5, obtained from cell membranes (for example CHO) transfected according to standard methods.
(§2) The membranes are incubated in duplicate for 60 min. at 25° C. with 3-[125I]iodotyrosyl11Somatostatin-14 (Amersham, IM161, 2000 Ci/mmol) as radioligand and with increasing concentrations of the compound under examination, in 25 mM Hepes (pH 7.4) buffer, containing 5 mM MgCl2, 1 mM CaCl2, 10 μg/ml of Saponin, 0.5% BSA. The incubation is terminated by means of filtration with a Filtermate Harvester (Perkin Elmer) through GF/B filters, which are then washed 6 times with buffer (25 mM Hepes pH 7.4, 5 mM MgCl2, 1 mM CaCl2). The radioactivity of the filters is measured in a TopCount™ or MicroBeta™ reader for 1 min/well after having added the Microscint 20 liquid scintillation (Packard) and incubated for 15 min. in an orbital stirrer. The results are expressed as specific binding percentage of the radio-marked ligand, in the presence of increasing concentrations of the compound under examination. The IC50 values were calculated by using the “GraphPad Prism” software (IC50=concentration of compound necessary for obtaining half of the maximum inhibition, in the competitive binding test described above).

The target of data set [3] is T2, hSSTR2 (Homo sapiens, UniProt P30874).
T2 construct: expressed in transfected cells
T2 sequence (P30874 whole entry): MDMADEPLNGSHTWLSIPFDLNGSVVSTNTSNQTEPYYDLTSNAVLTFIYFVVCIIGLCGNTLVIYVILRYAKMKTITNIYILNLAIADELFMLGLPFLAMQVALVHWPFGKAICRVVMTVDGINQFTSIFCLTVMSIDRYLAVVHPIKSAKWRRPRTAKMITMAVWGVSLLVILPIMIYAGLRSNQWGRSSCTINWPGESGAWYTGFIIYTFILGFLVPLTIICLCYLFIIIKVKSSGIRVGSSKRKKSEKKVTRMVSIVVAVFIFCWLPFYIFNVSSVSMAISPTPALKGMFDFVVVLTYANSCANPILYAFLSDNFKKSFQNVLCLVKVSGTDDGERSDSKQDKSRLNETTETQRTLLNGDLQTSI
The description is as above. The note with it: cell membranes, 60 min at 25° C. The procedure: as §1, §2

The target of data set [4] is T3, hSSTR3 (Homo sapiens, UniProt P32745).
T3 construct: expressed in transfected cells
T3 sequence (P32745 whole entry): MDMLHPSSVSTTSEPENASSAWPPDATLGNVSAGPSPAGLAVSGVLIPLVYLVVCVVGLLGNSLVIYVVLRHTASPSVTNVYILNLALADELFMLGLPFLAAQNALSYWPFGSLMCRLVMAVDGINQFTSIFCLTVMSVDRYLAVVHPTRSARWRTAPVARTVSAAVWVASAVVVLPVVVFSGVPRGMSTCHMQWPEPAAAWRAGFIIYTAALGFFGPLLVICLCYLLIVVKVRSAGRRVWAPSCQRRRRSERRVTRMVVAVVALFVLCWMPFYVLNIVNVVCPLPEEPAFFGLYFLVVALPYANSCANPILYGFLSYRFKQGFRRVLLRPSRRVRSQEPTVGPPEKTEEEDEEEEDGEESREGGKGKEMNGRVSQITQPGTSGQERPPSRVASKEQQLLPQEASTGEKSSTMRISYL
The description is as above. The note with it: cell membranes, 60 min at 25° C. The procedure:
as §1, §2

The target of data set [5] is T4, hSSTR5 (Homo sapiens, UniProt P35346).
T4 construct: expressed in transfected cells
T4 sequence (P35346 whole entry): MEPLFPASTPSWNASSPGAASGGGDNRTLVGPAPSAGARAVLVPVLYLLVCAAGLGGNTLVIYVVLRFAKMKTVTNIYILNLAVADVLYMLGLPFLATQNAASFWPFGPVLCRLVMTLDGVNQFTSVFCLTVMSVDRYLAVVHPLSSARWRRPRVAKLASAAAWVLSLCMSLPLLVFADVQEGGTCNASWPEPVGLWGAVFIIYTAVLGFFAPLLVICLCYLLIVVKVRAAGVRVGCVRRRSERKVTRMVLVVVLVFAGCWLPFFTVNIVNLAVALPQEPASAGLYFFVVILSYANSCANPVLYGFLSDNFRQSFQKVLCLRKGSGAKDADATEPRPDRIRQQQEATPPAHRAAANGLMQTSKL
The data set is described as above. The note with it: cell membranes, 60 min at 25° C. The procedure:
as §1, §2

Data set [6] can be described thus: Pharmacokinetic profile in rats, subcutaneous. Format: in vivo. Conditions: rat, sc, male rats, 1 mg/kg, plasma; for half-life: read-out: t½ (converted). As for the experimental part:
Assay for the Pharmacokinetic Profile
The compounds of the invention also show, in rats, a very favourable pharmacokinetic profile. The pharmacokinetic profile was measured by administering the compounds to male rates, subcutaneously, at the dose of 1 mg/kg (CD, Sprague Dawley; 200-250 g). Blood samples were collected, at different times, up to 72 hours after the administration. The concentrations of the compound under examination were measured in the separated plasma samples, by means of an LC-MS/MS analysis method and the values were processed according to a non-compartmental model using the software “Kinetica”. In the following table, the main pharmacokinetic parameters obtained with the compound of example 1 are reported, compared with those obtained with PASIREOTIDE, another stable analogue of somatostatin, currently in clinical development phase (PASIREOTIDE was prepared by following the process described in WO2002010192).

In data set [7] the test system is rat pituitary cells. The note with it: 3 h.
The conditions of data set [8]: comparison value, source and conditions not stated; cited from earlier work.
[9] abbreviates: recombinant human receptor, read-out: IC50 (nM) hSSTR2.
Setting [10] is: recombinant human receptor, read-out: IC50 (nM) hSSTR3.
[11] abbreviates: recombinant human receptor, read-out: IC50 (nM) hSSTR5.

As to “Fmoc-(D/L) 3-(3,8-dimethoxy-Naphthalene-2-yl)-Alanine [Example 1]”, in data set [1] (5 μg/kg, six hours after the administration), the “reduction of the release of GH” value was 55%. Moreover, the “reduction of GH, duration” value in data set [1] (125 μg/kg, 24 hours after the administration) was “still measurable”.
With `CNCCNC(=O)O[C@@H]1C[C@H]2C(=O)N[C@@H](Cc3ccccc3)C(=O)NC(Cc3cc4c(OC)cccc4cc3OC)C(=O)N[C@@H](CCCCN)C(=O)N[C@@H](Cc3ccc(OCc4ccccc4)cc3)C(=O)N[C@@H](Cc3ccccc3)C(=O)N2C1` (single isomer, unassigned) [Example 7, cyclo[Tyr(Bn)-Phe-Pro (4-OCONH(CH2)2NHCH3)-Phe-(D,L)3,8MNal-Lys]], the IC50 (as a rule, the concentration needed to halve the response being measured) in data set [2] was determined as 5.8 nM; in data set [3] (setting [9]) it was 9.2 nM; in data set [4] (setting [10]), 1.33 nM; in data set [5] (setting [11]) it was 0.97 nM.
As for `NCCCC[C@@H]1NC(=O)[C@@H](Cc2c[nH]c3ccccc23)NC(=O)[C@H](c2ccccc2)NC(=O)[C@@H]2C[C@@H](OC(=O)NCCN)CN2C(=O)[C@H](Cc2ccccc2)NC(=O)[C@H](Cc2ccc(OCc3ccccc3)cc2)NC1=O` [PASIREOTIDE, reference compound] (cyclo([Hyp]([CO-Ethylenediamine])[Phg][dW]KY(Bn)F)), in data set [6] (Sprague Dawley (CD)), the AUC – broadly, the area under the concentration-time curve, a measure of exposure – is 2800 ng·h/mL; the AUC(0-t) (commonly the area under the concentration-time curve up to a stated or last time point) came out at 2780 ng·h/mL; the concentration peaked (Cmax) at 668 ng/mL; the MRT (as a rule, a mean duration of stay, worked out from the concentration-time curve) worked out at 4.87 h. Also, in data set [6] (Sprague Dawley (CD)), the Tmax (commonly the time at which the peak concentration occurs) is 2 h and the half-life is 24.4 h.
For the compound `COc1cc(CC2NC(=O)[C@H](Cc3ccccc3)NC(=O)[C@@H]3C[C@@H](OC(=O)NCCN)CN3C(=O)[C@H](Cc3ccccc3)NC(=O)[C@H](Cc3ccc(OCc4ccccc4)cc3)NC(=O)[C@H](CCCCN)NC2=O)c(OC)c2ccccc12` (single isomer, unassigned) [Example 9, cyclo[Tyr(Bn)-Phe-Pro(4-OCONH(CH2)2NH2)-Phe-(D,L)1,4-MNal-Lys]], the IC50 in data set [2] was found to be 32.4 nM; in data set [3] (setting [9]) it was 9.9 nM; in data set [4] (setting [10]), 2.34 nM; in data set [5] (setting [11]), 1.9 nM.
Turning to `COc1cc2cccc(OC)c2cc1CC1NC(=O)[C@H](Cc2ccccc2)NC(=O)[C@@H]2C[C@@H](OC(=O)NCCN)CN2C(=O)[C@H](Cc2ccccc2)NC(=O)[C@H](Cc2ccc(OCc3ccccc3)cc2)NC(=O)[C@H](CCCCN)NC1=O` (single isomer, unassigned) [Example 5, cyclo[Tyr(Bn)-Phe-Pro(4-OCONH(CH2)2NH2)-Phe-(D,L)3,8MNal-Lys]], the IC50 in data set [2] was 10.8 nM. Also, the IC50 in data set [3] (setting [9]) is 9.3 nM. The IC50 in data set [4] (setting [10]) was found to be 0.31 nM. The IC50 in data set [5] (setting [11]) is 0.42 nM. Moreover, in data set [6] (CD, Sprague Dawley), the AUC turned out to be 2880 ng·h/mL; the AUC(0-t) turned out to be 2730 ng·h/mL; the Cmax (in general, the peak of the concentration-time curve) stood at 224 ng/mL; the mean residence time (MRT) came out at 19 h. In data set [6] (CD, Sprague Dawley), the Tmax was 4 h and the half-life was 31.3 h. In data set [7], this compound showed an IC50 of 1.3 nM.
With `COc1cc(CC2NC(=O)[C@H](Cc3ccccc3)NC(=O)[C@@H]3C[C@@H](OC(=O)NCCN)CN3C(=O)[C@H](Cc3ccccc3)NC(=O)[C@H](Cc3ccc(OCc4ccccc4)cc3)NC(=O)[C@H](CCCCN)NC2=O)c(OC)c2ccccc12` (single isomer, unassigned) [Example 8, cyclo[Tyr(Bn)-Phe-Pro(4-OCONH(CH2)2NH2)-Phe-(D,L)1,4-MNal-Lys]], the IC50 stood at 19.1 nM in data set [2], 26.6 nM in data set [3] (setting [9]), 2.92 nM in data set [4] (setting [10]) and 9.78 nM in data set [5] (setting [11]).
Take `COc1cc2cccc(OC)c2cc1CC1NC(=O)[C@H](Cc2ccc(O)cc2)NC(=O)[C@@H]2C[C@@H](OC(=O)NCCN)CN2C(=O)[C@H](Cc2ccccc2)NC(=O)[C@H](Cc2ccc(OCc3ccccc3)cc2)NC(=O)[C@H](CCCCN)NC1=O` (stereo partly shown) [Example 14, cyclo[Tyr(Bn)-Phe-Pro(4-OCONH(CH2)2NH2)-Tyr-(D,L)3,8MNal-Lys]]: the half-maximal inhibitory concentration (IC50) in data set [3] (IC50 (nM) hSSTR2, recombinant human receptor) was 1.8 nM; in data set [4] (IC50 (nM) hSSTR3, recombinant human receptor) it was 0.35 nM; in data set [5] (IC50 (nM) hSSTR5, recombinant human receptor), 0.36 nM.
On to `COc1cc2cccc(OC)c2cc1CC1NC(=O)[C@H](Cc2ccccc2)NC(=O)[C@@H]2C[C@@H](OC(=O)NCCN)CN2C(=O)[C@H](Cc2ccccc2)NC(=O)[C@H](COCc2ccccc2)NC(=O)[C@H](CCCCN)NC1=O` (single isomer, unassigned) [Example 15, cyclo[Ser(Bn)-Phe-Pro(4-OCONH(CH2)2NH2)-Phe-(D,L)3,8MNal-Lys]], for which the IC50 in data set [2] turned out to be 1 nM; in data set [3] (setting [9]), 7 nM; in data set [4] (setting [10]), 1.8 nM; in data set [5] (setting [11]), 1.62 nM.
In the case of `C[C@@H](O)[C@@H]1NC(=O)[C@H](CCCCN)NC(=O)[C@@H](Cc2c[nH]c3ccccc23)NC(=O)[C@H](Cc2ccccc2)NC(=O)[C@@H](NC(=O)[C@H](N)Cc2ccccc2)CSSC[C@@H](C(=O)N[C@H](CO)[C@@H](C)O)NC1=O` [OCTREOTIDE], in data set [8], the t½ result is “about 2 hours”.
Take `COc1ccc(OC)c(CCC2NC(=O)[C@H](Cc3ccccc3)NC(=O)[C@@H]3C[C@@H](OC(=O)NCCN)CN3C(=O)[C@H](Cc3ccccc3)NC(=O)[C@H](Cc3ccc(OCc4ccccc4)cc3)NC(=O)[C@H](CCCCN)NC2=O)c1` (single isomer, unassigned) [Example 6, cyclo[Tyr(Bn)-Phe-Pro(4-OCONH(CH2)2NH2)-Phe-(D,L)2,5 MhPhe-Lys]]: the IC50 in data set [2] was determined as 10 nM; in data set [3] (setting [9]), 25.8 nM; in data set [4] (setting [10]) it was 0.52 nM; in data set [5] (setting [11]), 0.64 nM.

(Values after patent US8937152B2, “Non-selective somatostatin analogues” (Italfarmaco SpA, priority 2007, dated 2015).)
